Test results: PMC7932537, “Quantitative profiling of protease specificity” (PLoS Computational Biology, 2021)

Experiments:
[1] = tested on: MMP-2; assay: Substrate phage display with NGS: relative probability (RP) of P3-P1' tetramer clusters; format: biochemical, human; conditions: for relative probability (RP) of matching tetramer: P3-P1' tetramer matching the MS detected MMP2 cleavage sequence, RP_above_4.5; for avg_RP: MMP2 - no binning; for normalized RP - MMP2: normalized RP of matching tetramer; for MMP2 relative probability (RP): MMP2 tetramers from unique substrates, unrounded values
[2] = tested on: MMP-9; assay: as above; format: biochemical, human; conditions: for normalized RP - MMP9: normalized RP of matching tetramer; for corresponding MMP9 relative probability (RP): MMP2 tetramers from unique substrates, RP of same tetramer for MMP9
[3] = MMP2, RP of matching P3-P1' tetramer, common set of MMP2-9 selectome, RP above KL threshold
[4] = RP of matching tetramer, common MMP2-9 selectome
[5] = MMP9, RP of matching P3-P1' tetramer, common set of MMP2-9 selectome
[6] = MMP9, RP of the P3-P1' tetramer matching the MS detected cleavage, RP above 4.7, substrate phage display with NGS
[7] = RP of matching tetramer, common MMP2-9 selectome, RP above KL threshold
[8] = RP of the P3-P1' tetramer cluster contained in the hexamer, 200 nM MMP-2, 2 h, 37°C, two rounds of selection
[9] = MMP9, RP of the P3-P1' tetramer contained in the hexamer substrate (substrate phage display, NGS)
[10] = average relative probability of the tetramer, redundant tetramers averaged out
[11] = RP of matching tetramer, unique part of MMP2 selectome, RP above KL threshold
[12] = RP of matching tetramer, unique part of MMP2 selectome
[13] = RP according to MMP2, P3-P1' tetramer of unique physiologic MMP2 substrates from MEROPS
[14] = RP of the P3-P1' tetramer, MMP2 substrate phage display/NGS, tetramers of physiologic MEROPS substrates common to MMP2 and MMP9
[15] = RP of the P3-P1' tetramer, MMP9 substrate phage display/NGS, tetramers of physiologic MEROPS substrates common to MMP2 and MMP9
[16] = RP according to MMP9, P3-P1' tetramer of unique physiologic MMP9 substrates from MEROPS

AAAL
relative probability (RP) (acc.to MMP2) [1, 3]: 31.4
relative probability (RP) of matching tetramer [1]: 31.4
relative probability (RP) (acc.to MMP2) [1, 4]: 31.4
relative probability (RP) ([1]; tetramer annotation of MMP-2 cleavage sites in all substrates from MEROPS): 31.4
relative probability (RP) (acc.to MMP9) [2, 5]: 32.12
relative probability (RP) [2, 6]: 32.12
relative probability (RP) (acc.to MMP9) [2, 7]: 32.12

PGPIGW
relative probability (RP) [1, 8]: 31.1565
relative probability (RP) [2, 9]: 36.9425

MRPVGH
relative probability (RP) [1, 8]: 23.4937
relative probability (RP) [2, 9]: 20.8057

WGAL
avg_RP [1, 10]: 26.3441
relative probability (RP) of matching tetramer [1]: 26.34
relative probability (RP) (acc.to MMP2) [1, 11]: 26.34
normalized RP - MMP2 ([1]; unique part of MMP2 selectome): 0.7212
relative probability (RP) (acc.to MMP9) [2, 12]: 3.54
normalized RP - MMP9 ([2]; unique part of MMP2 selectome): 0.06758

PAQLHV
relative probability (RP) [1, 8]: 32.8467
relative probability (RP) [2, 9]: 43.1805

LGRF
MMP2 relative probability (RP) [1]: 13.9898
Relative probability (RP) rank [1, 13]: 3427
relative probability (RP) [1, 13]: 13.99
corresponding MMP9 relative probability (RP) [2]: 1.477

LRGL
relative probability (RP) (acc.to MMP2) [1, 14]: 20.33
relative probability (RP) (acc.to MMP9) [2, 15]: 28.75

MGSL
MMP2 relative probability (RP) [1]: 28.8961
Relative probability (RP) rank [1, 13]: 452
relative probability (RP) [1, 13]: 28.9
corresponding MMP9 relative probability (RP) [2]: 3.398

PVPV
relative probability (RP) (acc.to MMP2) [1, 3]: 23.04
relative probability (RP) of matching tetramer [1]: 23.04
relative probability (RP) (acc.to MMP2) [1, 4]: 23.04
relative probability (RP) (acc.to MMP9) [2, 5]: 29.89
relative probability (RP) [2, 6]: 29.89
relative probability (RP) (acc.to MMP9) [2, 7]: 29.89

PQGL
relative probability (RP) (acc.to MMP2) [1, 14]: 33.52
relative probability (RP) (acc.to MMP9) [2, 15]: 47.86

PANA
relative probability (RP) of matching tetramer [1]: 17.73
relative probability (RP) (acc.to MMP2) [1, 11]: 17.73
normalized RP - MMP2 ([1]; unique part of MMP2 selectome): 0.4855
relative probability (RP) (acc.to MMP9) [2, 12]: 2.68
normalized RP - MMP9 ([2]; unique part of MMP2 selectome): 0.05116

SRPAEF
relative probability (RP) [1, 8]: 19.4662
relative probability (RP) [2, 9]: 11.7405

GPALSY
relative probability (RP) [1, 8]: 14.6475
relative probability (RP) [2, 9]: 25.6531

AAGV
relative probability (RP) (acc.to MMP2) [1, 14]: 0.76
relative probability (RP) (acc.to MMP9) [2, 15]: 0.05

PRML [P3-P1' tetramer cluster]
avg_RP [1, 10]: 30.5973
relative probability (RP) ([2]; tetramer projected onto MMP-9 cleavage sites determined by Prudova et al. (2010)): 42.29

SKYL
relative probability (RP) (acc.to MMP2) [1, 14]: 4.49
relative probability (RP) (acc.to MMP9) [2, 15]: 0.25

PGPAGQ
relative probability (RP) [1, 8]: 28.0249
relative probability (RP) [2, 9]: 28.6679

VSHY
relative probability (RP) (acc.to MMP2) [1, 14]: 21.33
relative probability (RP) (acc.to MMP9) [2, 15]: 15.49

PIQW
MMP2 relative probability (RP) [1]: 8.258
Relative probability (RP) rank [1, 13]: 5694
relative probability (RP) [1, 13]: 8.26
relative probability (RP) (acc.to MMP2) [1, 14]: 8.26
corresponding MMP9 relative probability (RP) [2]: 1.638
Relative probability (RP) rank [2, 16]: 11221
relative probability (RP) [2, 16]: 1.64
relative probability (RP) (acc.to MMP9) [2, 15]: 1.64

GPHGYK
relative probability (RP) [1, 8]: 24.9359
relative probability (RP) [2, 9]: 44.1642

GSSY
relative probability (RP) (acc.to MMP2) [1, 14]: 0.73
relative probability (RP) (acc.to MMP9) [2, 15]: 0.37

KSPVGV
relative probability (RP) [1, 8]: 27.6556
relative probability (RP) [2, 9]: 34.3287

PAGE
relative probability (RP) (acc.to MMP2) [1, 14]: 0.05
relative probability (RP) (acc.to MMP9) [2, 15]: 0.06

FSPL
MMP2 relative probability (RP) [1]: 14.7799
Relative probability (RP) rank [1, 13]: 3161
relative probability (RP) [1, 13]: 14.78
corresponding MMP9 relative probability (RP) [2]: 1.083

EPKPLL
relative probability (RP) [1, 8]: 33.5622
relative probability (RP) [2, 9]: 48.2599

KSPQAM
relative probability (RP) [1, 8]: 28.5429
relative probability (RP) [2, 9]: 47.1106

PSKL
avg_RP ([1]; average relative probability (RP) of the P3-P1' tetramer, redundant tetramers have been averaged out): 32.2205
relative probability (RP) (acc.to MMP2) [1, 3]: 32.22
relative probability (RP) of matching tetramer [1]: 32.22
relative probability (RP) (acc.to MMP2) [1, 4]: 32.22
relative probability (RP) (acc.to MMP9) [2, 5]: 38.96
relative probability (RP) [2, 6]: 38.96
relative probability (RP) (acc.to MMP9) [2, 7]: 38.96

MGPLGQ
relative probability (RP) [1, 8]: 28.8115
relative probability (RP) [2, 9]: 44.3652

VGGL
relative probability (RP) (acc.to MMP2) [1, 3]: 26.45
relative probability (RP) of matching tetramer [1]: 26.45
relative probability (RP) (acc.to MMP2) [1, 4]: 26.45
relative probability (RP) (acc.to MMP9) [2, 5]: 9.44
relative probability (RP) [2, 6]: 9.44
relative probability (RP) (acc.to MMP9) [2, 7]: 9.44

FKNI
relative probability (RP) (acc.to MMP2) [1, 14]: 0.14
relative probability (RP) (acc.to MMP9) [2, 15]: 0.09

GEPFEL
relative probability (RP) [1, 8]: 15.9169
relative probability (RP) [2, 9]: 44.9497

AMPM
relative probability (RP) (acc.to MMP2) [1, 3]: 8.51
relative probability (RP) of matching tetramer [1]: 8.51
relative probability (RP) (acc.to MMP2) [1, 4]: 8.51
relative probability (RP) (acc.to MMP9) [2, 5]: 26.95
relative probability (RP) [2, 6]: 26.95
relative probability (RP) (acc.to MMP9) [2, 7]: 26.95

KPVNMT
relative probability (RP) [1, 8]: 30.0312
relative probability (RP) [2, 9]: 44.4072

EVPQAL
relative probability (RP) [1, 8]: 34.4508
relative probability (RP) [2, 9]: 48.457

LGVM
MMP2 relative probability (RP) [1]: 4.758
Relative probability (RP) rank [1, 13]: 7712
relative probability (RP) [1, 13]: 4.76
relative probability (RP) (acc.to MMP2) [1, 14]: 4.76
corresponding MMP9 relative probability (RP) [2]: 1.791
Relative probability (RP) rank [2, 16]: 10648
relative probability (RP) [2, 16]: 1.79
relative probability (RP) (acc.to MMP9) [2, 15]: 1.79

PDGL
relative probability (RP) (acc.to MMP2) [1, 4]: 6.23
relative probability (RP) [2, 6]: 23.13
relative probability (RP) (acc.to MMP9) [2, 7]: 23.13

PQGLAG
relative probability (RP) [1, 8]: 33.5241
relative probability (RP) [2, 9]: 47.8621

PRGY
relative probability (RP) (acc.to MMP2) [1, 3]: 34.02
relative probability (RP) of matching tetramer [1]: 34.02
relative probability (RP) (acc.to MMP2) [1, 4]: 34.02
relative probability (RP) (acc.to MMP9) [2, 5]: 46.79
relative probability (RP) [2, 6]: 46.79
relative probability (RP) (acc.to MMP9) [2, 7]: 46.79

PSSV
relative probability (RP) (acc.to MMP2) [1, 14]: 20.49
relative probability (RP) (acc.to MMP9) [2, 15]: 25.16

GPEGMK
relative probability (RP) [1, 8]: 19.9209
relative probability (RP) [2, 9]: 31.8598

QQPSRL
relative probability (RP) [1, 8]: 31.7732
relative probability (RP) [2, 9]: 39.8157

SPMAFS
relative probability (RP) [1, 8]: 29.2698
relative probability (RP) [2, 9]: 45.5118

IDNL
relative probability (RP) of matching tetramer [1]: 4.88
relative probability (RP) (acc.to MMP2) [1, 11]: 4.88
normalized RP - MMP2 ([1]; unique part of MMP2 selectome): 0.1336
relative probability (RP) (acc.to MMP9) [2, 12]: 0.5
normalized RP - MMP9 ([2]; unique part of MMP2 selectome): 0.009546

LSWL
relative probability (RP) (acc.to MMP2) [1, 3]: 25.56
relative probability (RP) of matching tetramer [1]: 25.56
relative probability (RP) (acc.to MMP2) [1, 4]: 25.56
relative probability (RP) (acc.to MMP9) [2, 5]: 20.21
relative probability (RP) [2, 6]: 20.21
relative probability (RP) (acc.to MMP9) [2, 7]: 20.21

ITGL
MMP2 relative probability (RP) [1]: 4.832
Relative probability (RP) rank [1, 13]: 7648
relative probability (RP) [1, 13]: 4.83
corresponding MMP9 relative probability (RP) [2]: 0.3587

PTGS
relative probability (RP) (acc.to MMP2) [1, 14]: 0.04
relative probability (RP) (acc.to MMP9) [2, 15]: 0.05

RGEL
MMP2 relative probability (RP) [1]: 14.9989
Relative probability (RP) rank [1, 13]: 3096
relative probability (RP) [1, 13]: 15
corresponding MMP9 relative probability (RP) [2]: 0.3681

PLQLQT
relative probability (RP) [1, 8]: 30.1017
relative probability (RP) [2, 9]: 45.7856
